Source: US9050346B2, “Bromodomain inhibitors” (AbbVie Inc., priority 2013, dated 2015)

How the values were obtained:
[1] = target: T1, BRD4 (BDI_K57-E168) (Homo sapiens, UniProt O60885); experiment: TR-FRET bromodomain binding assay, BRD4 first bromodomain; details: His-tagged BD1, 100 nM Alexa647 probe; Ki calculated from IC50; dilution protocol A-G
T1 construct: BD1: amino acids K57-E168; made in house
Summary of the method: (§1)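 His-tagged BRD4 BD1 (K57-E168) or BD2 (8 nM) with Eu-anti-His antibody and Alexa647-labeled BET-inhibitor probe (100 nM for BDI, 30 nM for BDII), pH 6.0 phosphate buffer, 2% DMSO, 1 h at room temperature. TR-FRET (Ex 340, Em 495/520); IC50 by 4-parameter fit, converted to Ki using probe Kd and concentration.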

[2] = target: T2, BRD4 (BDII_E352-M457) (Homo sapiens, UniProt O60885); experiment: TR-FRET bromodomain binding assay, BRD4 second bromodomain
T2 construct: made in house
Summary of the method: as §1

[3] = tested on: breast cancer cell line MX-1; experiment: MX-1 cell line proliferation assay (3-day, Cell Titer Glo); format: cell-based; details: Homo sapiens, MX1, MX-1 cells, 72 h, top concentration 3 μM, read-out: Cellular proliferation: EC50
Method: The impact of compounds of the Examples on cancer cell proliferation was determined using the breast cancer cell line MX-1 (ATCC) in a 3-day proliferation assay and the data are reported in Table 1. MX-1 cells were maintained in RPMI 1640 medium (Sigma) supplemented with 10% FBS at 37 C.° and an atmosphere of 5% CO2. For compound testing, MX-1 cells were plated in 96-well black bottom plates at a density of 5000 cells/well in 90 μL of culture media and incubated at 37° overnight to allow cell adhesion and spreading. Compound dilution series were prepared in DMSO via a 3-fold serial dilution from 3 mM to 0.1 μM. The DMSO dilution series were then diluted 1:100 in phosphate buffered saline, and 10 μL of the resulted solution were added to the appropriate wells of the MX-1 cell plate. The final compound concentrations in the wells were 3, 1, 0.3, 0.1, 0.03, 0.01, 0.003, 0.001, 0.0003 and 0.0001 μM.
Luminescence readings from the Cell Titer Glo assay were normalized to the DMSO treated cells and analyzed using the GraphPad Prism software with sigmoidal curve fitting to obtain EC50s. The minimum significant ratio (MSR) was determined to evaluate assay reproducibility (Eastwood et al., (2006) J Biomol Screen, 11: 253-261).

| Compound | Ki [1] | Ki [2] | EC50 [3] |
| --- | --- | --- | --- |
| Cc1[nH]c(-c2ccccc2Oc2ccccc2)c2cc(C(=O)NC3CN(C)C3)[nH]c(=O)c12 [Example 49, 3-methyl-N-(1-methylazetidin-3-yl)-4-oxo-1-(2-phenoxyphenyl)-4,5-dihydro-2H-pyrrolo[3,4-c]pyridine-6-carboxamide] | 3.43 nM | 70.2 nM | 138 nM |
| CO[C@H]1C[C@H](NC(=O)c2cc3c(-c4ccccc4Oc4ccccc4)[nH]c(C)c3c(=O)[nH]2)C1 [Example 50, N-(trans-3-methoxycyclobutyl)-3-methyl-4-oxo-1-(2-phenoxyphenyl)-4,5-dihydro-2H-pyrrolo[3,4-c]pyridine-6-carboxamide] | 30.1 nM | 11.3 nM | 210 nM |
| Cc1[nH]c(-c2ccccc2Oc2ccccc2)c2cc(C(=O)N[C@@H]3CCN(C)C3)[nH]c(=O)c12 [Example 51, (R)-3-methyl-N-(1-methylpyrrolidin-3-yl)-4-oxo-1-(2-phenoxyphenyl)-4,5-dihydro-2H-pyrrolo[3,4-c]pyridine-6-carboxamide] | 6.13 nM | 190 nM | 117 nM |
| Cc1[nH]c(-c2ccccc2Oc2ccccc2)c2cc(C(=O)NC(C)(C)C#N)[nH]c(=O)c12 [Example 52, N-(2-cyanopropan-2-yl)-3-methyl-4-oxo-1-(2-phenoxyphenyl)-4,5-dihydro-2H-pyrrolo[3,4-c]pyridine-6-carboxamide] | 36.9 nM | 97.5 nM | 763 nM |
| Cc1[nH]c(-c2ccccc2Oc2ccccc2)c2cc(C(=O)NN(C)C)[nH]c(=O)c12 [Example 53, N′,N′,3-trimethyl-4-oxo-1-(2-phenoxyphenyl)-4,5-dihydro-2H-pyrrolo[3,4-c]pyridine-6-carbohydrazide] | 8.25 nM | 72.1 nM | 162 nM |
| Cc1[nH]c(-c2ccccc2Oc2ccccc2)c2cc(C(=O)NC3CCNCC3)[nH]c(=O)c12 [Example 57, 3-methyl-4-oxo-1-(2-phenoxyphenyl)-N-(piperidin-4-yl)-4,5-dihydro-2H-pyrrolo[3,4-c]pyridine-6-carboxamide] | 1.78 nM | 15.8 nM | 252 nM |
| Cc1[nH]c(-c2ccccc2Oc2ccccc2)c2cc(C(=O)NC[C@H]3CCNC3)[nH]c(=O)c12 [Example 58, (S)-3-methyl-4-oxo-1-(2-phenoxyphenyl)-N-(pyrrolidin-3-ylmethyl)-4,5-dihydro-2H-pyrrolo[3,4-c]pyridine-6-carboxamide] | 2.02 nM | 16 nM | 329 nM |
| Cc1[nH]c(-c2ccccc2Oc2ccccc2)c2cc(C(=O)NCC3CNCC3(F)F)[nH]c(=O)c12 (stereo not drawn) [Example 59, N-[(4,4-difluoropyrrolidin-3-yl)methyl]-3-methyl-4-oxo-1-(2-phenoxyphenyl)-4,5-dihydro-2H-pyrrolo[3,4-c]pyridine-6-carboxamide] | 3.67 nM | 59.7 nM | 223 nM |
| Cc1[nH]c(-c2ccccc2Oc2ccccc2)c2cc(-c3nc(-c4cccnc4)no3)[nH]c(=O)c12 [Example 60, 3-methyl-1-(2-phenoxyphenyl)-6-(3-(pyridin-3-yl)-1,2,4-oxadiazol-5-yl)-2H-pyrrolo[3,4-c]pyridin-4(5H)-one] | 13 nM | 116 nM | 111 nM |
| Cc1noc(-c2cc3c(-c4ccccc4Oc4ccccc4)[nH]c(C)c3c(=O)[nH]2)n1 [Example 61, 3-methyl-6-(3-methyl-1,2,4-oxadiazol-5-yl)-1-(2-phenoxyphenyl)-2H-pyrrolo[3,4-c]pyridin-4(5H)-one] | 10 nM | 138 nM | 159 nM |
| Cc1[nH]c(-c2ccccc2Oc2ccccc2)c2cc(-c3nc(C4CC4)no3)[nH]c(=O)c12 [Example 63, 6-(3-cyclopropyl-1,2,4-oxadiazol-5-yl)-3-methyl-1-(2-phenoxyphenyl)-2H-pyrrolo[3,4-c]pyridin-4(5H)-one] | 43.5 nM | 257 nM | 139 nM |
| Cc1[nH]c(-c2ccccc2Oc2ccccc2)c2cc(-c3nc(Cn4cncn4)no3)[nH]c(=O)c12 [Example 64, 6-(3-((1H-1,2,4-triazol-1-yl)methyl)-1,2,4-oxadiazol-5-yl)-3-methyl-1-(2-phenoxyphenyl)-2H-pyrrolo[3,4-c]pyridin-4(5H)-one] | 2.28 nM | 7.11 nM | 29.2 nM |
| Cc1[nH]c(-c2ccccc2Oc2ccccc2)c2cc(-c3nc(-c4cnccn4)no3)[nH]c(=O)c12 [Example 65, 3-methyl-1-(2-phenoxyphenyl)-6-(3-(pyrazin-2-yl)-1,2,4-oxadiazol-5-yl)-2H-pyrrolo[3,4-c]pyridin-4(5H)-one] | 7.57 nM | 28.5 nM | 71.1 nM |
| Cc1[nH]c(-c2ccccc2Oc2ccccc2)c2cc(-c3nc(Cc4cccnc4)no3)[nH]c(=O)c12 [Example 66, 3-methyl-1-(2-phenoxyphenyl)-6-(3-(pyridin-3-ylmethyl)-1,2,4-oxadiazol-5-yl)-2H-pyrrolo[3,4-c]pyridin-4(5H)-one] | 9.31 nM | 151 nM | 81 nM |
| Cc1[nH]c(-c2ccccc2Oc2ccccc2)c2cc(-c3nc(-c4ccccn4)no3)[nH]c(=O)c12 [Example 67, 3-methyl-1-(2-phenoxyphenyl)-6-(3-(pyridin-2-yl)-1,2,4-oxadiazol-5-yl)-2H-pyrrolo[3,4-c]pyridin-4(5H)-one] | 9.45 nM | 78 nM | 80.5 nM |
| CCOC(=O)c1cc2c(-c3cc(CS(C)(=O)=O)ccc3Oc3ccc(F)cc3F)[nH]c(C)c2c(=O)[nH]1 [Example 68, ethyl 1-{2-(2,4-difluorophenoxy)-5-[(methylsulfonyl)methyl]phenyl}-3-methyl-4-oxo-4,5-dihydro-2H-pyrrolo[3,4-c]pyridine-6-carboxylate] | 2.12 nM | 8.8 nM | 30 nM |
| CCOC(=O)c1cc2c(-c3cc(F)ccc3OCC3CC3)[nH]c(C)c2c(=O)[nH]1 [Example 69, ethyl 1-[2-(cyclopropylmethoxy)-5-fluorophenyl]-3-methyl-4-oxo-4,5-dihydro-2H-pyrrolo[3,4-c]pyridine-6-carboxylate] | 52.2 nM | 416 nM | > 3000 nM |
| Cc1[nH]c(-c2cc(F)ccc2OCC2CC2)c2cc(C(N)=O)[nH]c(=O)c12 [Example 70, 1-[2-(cyclopropylmethoxy)-5-fluorophenyl]-3-methyl-4-oxo-4,5-dihydro-2H-pyrrolo[3,4-c]pyridine-6-carboxamide] | 82.7 nM | 356 nM | > 3000 nM |
| Cc1[nH]c(-c2cc(F)ccc2OCC2CC2)c2cc(-c3nc(-c4cnccn4)no3)[nH]c(=O)c12 [Example 71, 1-(2-(cyclopropylmethoxy)-5-fluorophenyl)-3-methyl-6-(3-(pyrazin-2-yl)-1,2,4-oxadiazol-5-yl)-2H-pyrrolo[3,4-c]pyridin-4(5H)-one] | 38.5 nM | 659 nM | 204 nM |
| Cc1[nH]c(-c2cc(N)ccc2Oc2ccccc2)c2cn[nH]c(=O)c12 [Example 74, 5-(5-amino-2-phenoxyphenyl)-7-methyl-2,6-dihydro-1H-pyrrolo[3,4-d]pyridazin-1-one] | 1.88 nM | 18.6 nM | 78 nM |
| CCS(=O)(=O)Nc1ccc(Oc2ccccc2)c(-c2[nH]c(C)c3c(=O)[nH]ncc23)c1 [Example 75, N-[3-(7-methyl-1-oxo-2,6-dihydro-1H-pyrrolo[3,4-d]pyridazin-5-yl)-4-phenoxyphenyl]ethanesulfonamide] | 3.66 nM | 9.47 nM | 51.8 nM |
| Cc1[nH]c(-c2cc(NS(=O)(=O)CC(F)(F)F)ccc2Oc2ccccc2)c2cn[nH]c(=O)c12 [Example 76, 2,2,2-trifluoro-N-[3-(7-methyl-1-oxo-2,6-dihydro-1H-pyrrolo[3,4-d]pyridazin-5-yl)-4-phenoxyphenyl]ethanesulfonamide] | 5.82 nM | 16.2 nM | 410 nM |
| Cc1[nH]c(-c2cc(N)ccc2Oc2ccc(F)cc2F)c2cn[nH]c(=O)c12 [Example 78, 5-[5-amino-2-(2,4-difluorophenoxy)phenyl]-7-methyl-2,6-dihydro-1H-pyrrolo[3,4-d]pyridazin-1-one] | 3.31 nM | 34.1 nM | 60.5 nM |
| CCS(=O)(=O)Nc1ccc(Oc2ccc(F)cc2F)c(-c2[nH]c(C)c3c(=O)[nH]ncc23)c1 [Example 79, N-[4-(2,4-difluorophenoxy)-3-(7-methyl-1-oxo-2,6-dihydro-1H-pyrrolo[3,4-d]pyridazin-5-yl)phenyl]ethanesulfonamide] | 1.78 nM | 5.91 nM | 88.6 nM |
